According to ChEMBL document CHEMBL5620430, “Design, synthesis and biological evaluation of indazole derivatives as selective covalent inhibitors of FGFR4 in wild-type and gatekeeper mutants” (Eur J Med Chem, 2023):
Calls of active or inactive are those of the source. No cut-off for these calls is given here.

How the values were obtained:
[1] = Metabolic stability in liver microsomes (unknown origin) assessed as half life; type: ADME, Microsome
[2] = Antiproliferative activity against human L02 cells measured after 24 to 48 hrs by MTT assay; type: toxicity, cell-based
HepG2 = assay: Antiproliferative activity against human HepG2 cells measured after 24 to 48 hrs by MTT assay; type: functional, cell-based
[3] = Half life in Sprague-Dawley rat at 2 mg/kg, iv by LC-MS/MS analysis; type: ADME, organism-based; details: in vivo
[4] = Tmax in Sprague-Dawley rat at 2 mg/kg, iv by LC-MS/MS analysis; type: ADME, organism-based; details: in vivo
[5] = target: T1, Fibroblast growth factor receptor 4 (Homo sapiens, UniProt P22455); assay: Inhibition of FGFR4 in human Huh-7 cells assessed as inhibition of ERK1/2 phosphorylation measured after 2 hrs by Western blot analysis; type: cell-based
T1 sequence (P22455 22-802 limits assumed): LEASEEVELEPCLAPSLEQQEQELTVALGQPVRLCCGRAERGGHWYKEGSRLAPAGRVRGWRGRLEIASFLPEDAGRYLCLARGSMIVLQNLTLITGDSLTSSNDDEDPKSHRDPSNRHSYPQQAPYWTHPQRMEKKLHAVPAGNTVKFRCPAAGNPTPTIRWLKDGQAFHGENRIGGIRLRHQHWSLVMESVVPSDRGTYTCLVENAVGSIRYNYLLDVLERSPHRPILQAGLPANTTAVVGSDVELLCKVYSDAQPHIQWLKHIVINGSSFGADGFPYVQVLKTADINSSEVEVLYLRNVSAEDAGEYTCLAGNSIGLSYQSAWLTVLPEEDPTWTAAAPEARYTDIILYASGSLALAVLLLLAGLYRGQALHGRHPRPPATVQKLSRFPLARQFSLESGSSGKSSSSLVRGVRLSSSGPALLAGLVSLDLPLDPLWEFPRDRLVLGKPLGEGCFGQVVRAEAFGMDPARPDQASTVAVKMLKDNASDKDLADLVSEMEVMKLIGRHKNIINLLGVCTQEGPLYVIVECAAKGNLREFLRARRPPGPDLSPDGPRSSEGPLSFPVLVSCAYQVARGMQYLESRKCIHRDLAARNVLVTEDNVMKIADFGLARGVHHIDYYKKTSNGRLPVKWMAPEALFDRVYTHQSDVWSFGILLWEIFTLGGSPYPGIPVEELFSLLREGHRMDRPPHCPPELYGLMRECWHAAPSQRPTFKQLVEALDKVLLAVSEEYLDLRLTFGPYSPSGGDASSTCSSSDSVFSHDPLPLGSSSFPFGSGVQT

[6] = target: T1, Fibroblast growth factor receptor 4; assay: Inhibition of FGFR4 in human Huh-7 cells assessed as inhibition of MEK phosphorylation at 0.5 uM by Western blot analysis; type: cell-based; details: time <= 24.0 hrs, TDE = time-dependent effect
Huh-7 [7] = assay: Induction of cell cycle arrest in human Huh-7 cells assessed as accumulation of cells at G0/G1 phase at 1 to 2 uM measured after 48 hrs by propidium iodide staining based flow cytometry analysis; type: functional; details: dose 1-2 µM
Huh-7 [8] = assay: Inhibition of cell migration in human Huh-7 cells at 5 uM incubated for 24 hrs by wound healing assay relative to control; type: functional
Huh-7 [9] = assay: Antitumor activity against human Huh-7 cells xenografted in NSG mouse assessed as suppression of tumor growth at 20 mg/kg, ip administered twice per day for 2 weeks relative to control; type: functional
Huh-7 [10] = assay: Antitumor activity against human Huh-7 cells xenografted in NSG mouse assessed as suppression of tumor growth at 40 mg/kg, ip administered twice per day for 2 weeks relative to control; type: functional
Huh-7 [11] = assay: Antitumor activity against human Huh-7 cells xenografted in ip dosed NSG mouse assessed as decrease in tumor weight administered twice per day for 2 weeks; type: functional, organism-based; details: dose 20-40 mg/kg
[12] = Toxicity in NSG mouse assessed as effect on ALB level at 20 to 40 mg/kg […]; type: organism-based; details: in vivo, dose 20-40 mg/kg
[13] = Toxicity in NSG mouse assessed as effect on LDH level at 20 to 40 mg/kg […]; type: organism-based; details: in vivo, dose 20-40 mg/kg
BaF3 = assay: cells; details: Mus musculus
Description: Antiproliferative activity against mouse BaF3 cells harbouring ETV6-FGFR4-V550L mutant measured after 24 to 48 hrs by MTT assay

Work on C=CC(=O)Nc1cc2c(cc1-c1n[nH]c3ccc(O[C@H](C)c4c(Cl)cncc4Cl)cc13)CCN(C)C2 yielded a half-life [1] of 8.99 min, an IC50 [2] of over 10 µM and an IC50 (HepG2) of over 5 µM. For the same molecule, the half-life [3] was 420 min, the Tmax [4] was 4.8 min and the inhibition [5] was “Dose-Dependent Effect”. The inhibition [6] was “Tde”, the Activity (Huh-7 [7]) was “Active” and the inhibition at 5 µM (Huh-7 [8]) was 90%. For the same molecule, the Activity (Huh-7 [9]) was 60.2%, the Activity (Huh-7 [10]) was 83% and the Activity (Huh-7 [11]) was “Dose-Dependent Effect”. The Activity [12] was “Non-Toxic”, the Activity [13] was “Non-Toxic” and the IC50 (BaF3) was 0.002 µM.
